Test results taken from ChEMBL document CHEMBL1240297 (Cancer Res, 2005).
pIC50: −log10 of the molar value. Active and inactive are the calls of the source. The calls are words filed in the database; no cut-off is given here. Where a SMILES comes first, the peptide text is derived from it. The star is where a group is joined. Cbz = O=C(OCc1ccccc1)*

Tests used:
LP-1 [1] = assay: Induction of apoptosis in human LP-1 cells assessed as increase in level of cleaved PARP at 300 nM after 16 hrs by immunoblotting; type: functional, cell-based
LP-1 [2] = assay: Induction of apoptosis in human LP-1 cells assessed as reduction of Mcl-1 protein level at 300 nM after 16 hrs by immunoblotting; type: functional, cell-based
NCI-H929 [3] = assay: Induction of apoptosis in human NCI-H929 cells assessed as dephosphorylation of pRb at S249/T252 at 60 uM after 1.5 hrs by immunoblotting; type: functional, cell-based
NCI-H929 [4] = assay: Induction of apoptosis in human NCI-H929 cells assessed as changes in survivin protein level at 60 uM after 3 hrs by immunoblotting; type: functional, cell-based
NCI-H929 [5] = assay: Induction of apoptosis in human NCI-H929 cells assessed as changes in XIAP protein level at 60 uM after 3 hrs by immunoblotting; type: functional, cell-based
[6] = Cytotoxicity against human NCI-H929 cells after 72 hrs by alamar blue assay; type: functional, cell-based; settings: NCI-H929, 72 h
LP-1 [7] = assay: Cytotoxicity against human LP-1 cells after 72 hrs by alamar blue assay; type: functional, cell-based; settings: LP-1, 72 h
U-266 = assay: Cytotoxicity against human U266 cells after 72 hrs by alamar blue assay; type: functional, cell-based; settings: U-266, 72 h
OPM-2 = assay: Cytotoxicity against human OPM2 cells after 72 hrs by alamar blue assay; type: functional, cell-based; settings: OPM-2, 72 h
[8] = Cytotoxicity against human RPM18226 cells after 72 hrs by alamar blue assay; type: functional, cell-based; settings: RPMI-8226, 72 h
NCI-H929 [9] = assay: Induction of apoptosis in human NCI-H929 cells assessed as reduction of RNA polymerase 2 phosphoserine 2 level at 60 uM after 1.5 hrs by immunoblotting; type: functional, cell-based
NCI-H929 [10] = assay: Induction of apoptosis in human NCI-H929 cells assessed as reduction of RNA polymerase 2 phosphoserine 5 level at 60 uM after 1.5 hrs by immunoblotting; type: functional, cell-based
NCI-H929 [11] = assay: Induction of apoptosis in human NCI-H929 cells assessed as reduction of total RNA polymerase 2 level at 60 uM after 1.5 hrs by immunoblotting; type: functional, cell-based
NCI-H929 [12] = assay: Induction of apoptosis in human NCI-H929 cells assessed as fast migrating hypophosphorylated RNA polymerase 2A form at 60 uM after 1.5 hrs by immunoblotting; type: functional, cell-based
NCI-H929 [13] = assay: Induction of apoptosis in human NCI-H929 cells assessed as […] slow migrating hyperphosphorylated RNA polymerase 2O form at 60 uM after 1.5 hrs by immunoblotting; type: functional, cell-based
NCI-H929 [14] = assay: Induction of apoptosis in human NCI-H929 cells assessed as dephosphorylation of pRb at S249/T252 at 60 uM after 8 hrs by immunoblotting; type: functional, cell-based
NCI-H929 [15] = assay: Induction of apoptosis in human NCI-H929 cells assessed as reduction of Mcl-1 protein level at 60 uM after 3 hrs by immunoblotting; type: functional, cell-based
NCI-H929 [16] = assay: Induction of apoptosis in human NCI-H929 cells assessed as changes in Bcl-2 protein level at 60 uM after 3 hrs by immunoblotting; type: functional, cell-based
NCI-H929 [17] = assay: Induction of apoptosis in human NCI-H929 cells assessed as increase in level of cleaved PARP at 60 uM after 5 hrs by immunoblotting; type: functional, cell-based
NCI-H929 [18] = assay: Induction of apoptosis in human NCI-H929 cells assessed as reduction of Hdm2 level at 60 uM after 1.5 hrs by immunoblotting; type: functional, cell-based
NCI-H929 [19] = assay: Induction of apoptosis in human NCI-H929 cells assessed as increase of p53 accumulation at 60 uM after 1.5 hrs by immunoblotting; type: functional, cell-based
[20] = Selectivity ratio of IC50 for CDK9/cyclin T to IC50 for CDK7/cyclin H
[21] = Selectivity ratio of IC50 for CDK9/cyclin T to IC50 for CDK2/cyclin E
NCI-H929 [22] = assay: Induction of apoptosis in human NCI-H929 cells assessed as changes in XIAP protein level at 30 uM after 3 hrs by immunoblotting; type: functional, cell-based
NCI-H929 [23] = assay: Induction of apoptosis in human NCI-H929 cells assessed as changes in survivin protein level at 30 uM after 3 hrs by immunoblotting; type: functional, cell-based
NCI-H929 [24] = assay: Induction of apoptosis in human NCI-H929 cells at 30 uM after 3 hrs using TUNEL staining by flow cytometry; type: functional, cell-based
LP-1 [25] = assay: Induction of apoptosis in human LP-1 cells at 30 uM after 3 hrs using TUNEL staining by flow cytometry; type: functional, cell-based
RPMI-8226 [26] = assay: Induction of apoptosis in human RPM18226 cells at 30 uM after 3 hrs using TUNEL staining by flow cytometry; type: functional, cell-based
NCI-H929 [27] = assay: Induction of apoptosis in human NCI-H929 cells at 30 uM after 24 hrs using TUNEL staining by flow cytometry; type: functional
LP-1 [28] = assay: Induction of apoptosis in human LP-1 cells at 30 uM after 24 hrs using TUNEL staining by flow cytometry; type: functional
RPMI-8226 [29] = assay: Induction of apoptosis in human RPM18226 cells at 30 uM after 24 hrs using TUNEL staining by flow cytometry; type: functional
LP-1 [30] = assay: Cytotoxicity against human LP-1 cells assessed as reduction of cell viability at 20 to 30 uM treated for 8 hrs followed by washout measured after total 72 hrs growth period alamar blue assay relative to control; type: functional
NCI-H929 [31] = assay: Cytotoxicity against human NCI-H929 cells assessed as reduction of cell viability at 20 to 30 uM treated for 16 hrs followed by washout measured after total 72 hrs growth period alamar blue assay relative to control; type: functional, cell-based
LP-1 [32] = assay: Cytotoxicity against human LP-1 cells assessed as reduction of cell viability at 20 to 30 uM treated for 24 hrs followed by washout measured after total 72 hrs growth period alamar blue assay relative to control; type: functional, cell-based
NCI-H929 [33] = assay: Induction of apoptosis in human NCI-H929 cells assessed as reduction of RNA polymerase 2 phosphoserine 2 level at 30 uM after 1.5 hrs by immunoblotting; type: functional, cell-based
NCI-H929 [34] = assay: Induction of apoptosis in human NCI-H929 cells assessed as reduction of RNA polymerase 2 phosphoserine 5 level at 30 uM after 1.5 hrs by immunoblotting; type: functional, cell-based
NCI-H929 [35] = assay: Induction of apoptosis in human NCI-H929 cells assessed as reduction of total RNA polymerase 2 level at 30 uM after 1.5 hrs by immunoblotting; type: functional, cell-based
NCI-H929 [36] = assay: Induction of apoptosis in human NCI-H929 cells assessed as fast migrating hypophosphorylated RNA polymerase 2A form at 30 uM after 1.5 hrs by immunoblotting; type: functional, cell-based
NCI-H929 [37] = assay: Induction of apoptosis in human NCI-H929 cells assessed as […] slow migrating hyperphosphorylated RNA polymerase 2O form at 30 uM after 1.5 hrs by immunoblotting; type: functional, cell-based
NCI-H929 [38] = assay: Induction of apoptosis in human NCI-H929 cells assessed as dephosphorylation of pRb at S249/T252 at 30 uM after 1.5 hrs by immunoblotting; type: functional, cell-based
NCI-H929 [39] = assay: Induction of apoptosis in human NCI-H929 cells assessed as effect on total pRb level at 30 uM after 1.5 hrs by immunoblotting; type: functional, cell-based
NCI-H929 [40] = assay: Induction of apoptosis in human NCI-H929 cells assessed as reduction of Mcl-1 protein level at 30 uM after 3 hrs by immunoblotting; type: functional, cell-based
NCI-H929 [41] = assay: Induction of apoptosis in human NCI-H929 cells assessed as changes in Bcl-2 protein level at 30 uM after 3 hrs by immunoblotting; type: functional, cell-based
NCI-H929 [42] = assay: Induction of apoptosis in human NCI-H929 cells assessed as reduction of Hdm2 level at 30 uM after 1.5 hrs by immunoblotting; type: functional, cell-based
NCI-H929 [43] = assay: Induction of apoptosis in human NCI-H929 cells assessed as increase of p53 accumulation at 30 uM after 1.5 hrs by immunoblotting; type: functional, cell-based
LP-1 [44] = assay: Induction of apoptosis in human LP-1 cells assessed as reduction of RNA polymerase 2 phosphoserine 2 level at 30 uM after 1.5 hrs by immunoblotting; type: functional, cell-based
RPMI-8226 [45] = assay: Induction of apoptosis in human RPM18226 cells assessed as reduction of RNA polymerase 2 phosphoserine 2 level at 30 uM after 1.5 hrs by immunoblotting; type: functional, cell-based
LP-1 [46] = assay: Induction of apoptosis in human LP-1 cells assessed as reduction of Mcl-1 protein level at 30 uM after 3 hrs by immunoblotting; type: functional, cell-based
RPMI-8226 [47] = assay: Induction of apoptosis in human RPM18226 cells assessed as reduction of Mcl-1 protein level at 30 uM after 3 hrs by immunoblotting; type: functional, cell-based
[48] = Inhibition of CDK9/cyclin T

For `CC(C)C[C@@H](C=O)NC(=O)[C@H](CC(C)C)NC(=O)[C@H](CC(C)C)NC(=O)OCc1ccccc1` (Cbz-Leu-Leu-Leu-aldehyde), the Activity (LP-1 [1]) was “Active” and the Activity (LP-1 [2]) was “inactive”.

In the case of `OC[C@H]1O[C@@H](n2cnc3cc(Cl)c(Cl)cc32)[C@H](O)[C@@H]1O` [DICHLORORIBOBENZIMIDAZOLE], the Activity (NCI-H929 [3]) was “inactive”, the Activity (NCI-H929 [4]) was “Active” and the Activity (NCI-H929 [5]) was “Active”. It also gave a pIC50 [6] of 4.70, a pIC50 (LP-1 [7]) of 4.53 and a pIC50 (U-266) of 4.39. For the same molecule, the pIC50 (OPM-2) was 4.53, the pIC50 [8] was 4.33 and the Activity (NCI-H929 [9]) was “Active”. The Activity (NCI-H929 [10]) was “Active”, the Activity (NCI-H929 [11]) was “inactive” and the Activity (NCI-H929 [12]) was “Active”. For the same molecule, the Activity (NCI-H929 [13]) was “Active”, the Activity (NCI-H929 [14]) was “Active” and the Activity (NCI-H929 [15]) was “Active”. The Activity (NCI-H929 [16]) was “Active”, the Activity (NCI-H929 [17]) was “Active” and the Activity (NCI-H929 [18]) was “Active”. For the same molecule, the Activity (NCI-H929 [19]) was “Active”, the Ratio IC50 [20] was 25 and the Ratio IC50 [21] was 25.

With `CC[C@H](CO)Nc1nc(NCc2ccccc2)c2ncn(C(C)C)c2n1` [SELICICLIB] the Activity (NCI-H929 [22]) was “Active”, the Activity (NCI-H929 [23]) was “Active” and the pIC50 (LP-1 [7]) was 4.90. For the same molecule, the pIC50 (U-266) was 4.75, the pIC50 (OPM-2) was 4.73 and the pIC50 [8] was 4.71. The Activity (NCI-H929 [24]) was “Active”, the Activity (LP-1 [25]) was “Active” and the Activity (RPMI-8226 [26]) was “Active”. The Activity (NCI-H929 [27]) was “>=60%”, the Activity (LP-1 [28]) was “>=60%” and the Activity (RPMI-8226 [29]) was “>=60%”. For the same molecule, the Activity (LP-1 [30]) was 50%, the Activity (NCI-H929 [31]) was “Active” and the Activity (LP-1 [32]) was “Active”. For the same molecule, the Activity (NCI-H929 [33]) was “Active”, the Activity (NCI-H929 [34]) was “Active” and the Activity (NCI-H929 [35]) was “inactive”. For the same molecule, the Activity (NCI-H929 [36]) was “inactive”, the Activity (NCI-H929 [37]) was “Active” and the Activity (NCI-H929 [38]) was “Active”. The Activity (NCI-H929 [39]) was “inactive”, the Activity (NCI-H929 [40]) was “Active” and the Activity (NCI-H929 [41]) was “Active”. For the same molecule, the Activity (NCI-H929 [42]) was “Active”, the Activity (NCI-H929 [43]) was “Active” and the Activity (LP-1 [44]) was “Active”. The Activity (RPMI-8226 [45]) was “Active”, the Activity (LP-1 [46]) was “Active” and the Activity (RPMI-8226 [47]) was “Active”. The pIC50 [48] was 6.09.
